# Reference: patent publication US9487511B2, “Cyclopropanamine compound and use thereof” (Takeda Pharmaceutical Company Limited, priority 2014, dated 2016)
# Where a name gives a salt, the structure may show the parent alone. Read-outs that look alike come from different tables or passages of the source.
# Tests used:
# [1] = Evaluation of blood cell number in mouse; format: in vivo; settings: male ICR mice, oral, repeated 7 or 9 days
# Protocol: All compounds were repeatedly administered to the mice at a dose of 1 mg/kg, 10 mg/kg or 100 mg/kg (body weight) for 7 or 9 days. One day after the final administration of the compound, the whole blood was collected.
# Using Sysmex XT-1800i (Sysmex Corporation), the white blood cell number, red blood cell number, and platelet number in the collected whole blood per unit volume were measured. The influence of each compound on each blood cell number was determined by calculating the number with the mean of each blood cell number of the mouse without administration of the compound (0 mg/kg group), and the mean of each blood cell number in the whole blood of a mouse with the administration of the compound.
# [2] = Evaluation of hippocampal distribution in mouse; format: in vivo; settings: male ICR mice, 10 mg/kg oral; for concentration at 0.5 h: 0.5 h after administration
# [3] = male, ICR, mouse, hippocampus, po, 10 mg/kg, 1 h after administration, read-out: Concentration Hippocampus, Mean
# [4] = male, ICR, mouse, plasma, po, 10 mg/kg, 1 h after administration, read-out: Concentration Plasma, Mean
# [5] = 1 h after administration, sulfate
smiles,measurement,setting,value
"Cc1nnc(NC(=O)c2cc([C@@H]3C[C@H]3NC3CCC3)c(C)s2)s1 [Example 99, 4-((1S,2R)-2-(cyclobutylamino)cyclopropyl)-5-methyl-N-(5-methyl-1,3,4-thiadiazol-2-yl)thiophene-2-carboxamide hydrochloride]","Platelets, Mean",[1]; 1 mg/kg,1442 10^3 cells
same,"Red blood cells, Mean",[1]; 1 mg/kg,892 10^4 cells
same,"White blood cells, Mean",[1]; 1 mg/kg,399 10 cells
same,"Platelets, Mean",[1]; 10 mg/kg,1380 10^3 cells
same,"Red blood cells, Mean",[1]; 10 mg/kg,915 10^4 cells
same,"White blood cells, Mean",[1]; 10 mg/kg,378 10 cells
same,"Platelets, Mean",[1]; 100 mg/kg,1519 10^3 cells
same,"Red blood cells, Mean",[1]; 100 mg/kg,876 10^4 cells
same,"White blood cells, Mean",[1]; 100 mg/kg,347 10 cells
same,concentration at 1 h,[2]; [3],640 ng/g
same,concentration at 1 h,[2]; [4],2950 ng/mL
"Cc1nnc(NC(=O)c2cc([C@@H]3C[C@H]3NC3CCC3)cs2)s1 [Example 118, 4-((1S,2R)-2-(cyclobutylamino)cyclopropyl)-N-(5-methyl-1,3,4-thiadiazol-2-yl)thiophene-2-carboxamide sulfate]","Platelets, Mean","[1]; 1 mg/kg, sulfate",1051 10^3 cells
same,"Red blood cells, Mean","[1]; 1 mg/kg, sulfate",853 10^4 cells
same,"White blood cells, Mean","[1]; 1 mg/kg, sulfate",299 10 cells
same,"Platelets, Mean","[1]; 10 mg/kg, sulfate",1158 10^3 cells
same,"Red blood cells, Mean","[1]; 10 mg/kg, sulfate",907 10^4 cells
same,"White blood cells, Mean","[1]; 10 mg/kg, sulfate",312 10 cells
same,"Platelets, Mean","[1]; 100 mg/kg, sulfate",1176 10^3 cells
same,"Red blood cells, Mean","[1]; 100 mg/kg, sulfate",881 10^4 cells
same,"White blood cells, Mean","[1]; 100 mg/kg, sulfate",245 10 cells
same,"Concentration Hippocampus, Mean",[2]; [5],0.151 µg/g
same,"Concentration Plasma, Mean",[2]; [5],405 ng/mL
"Cc1nnc(NC(=O)c2cc([C@@H]3C[C@H]3NCC3CC3)cs2)s1 [Example 82, 4-((1S,2R)-2-((cyclopropylmethyl)amino)cyclopropyl)-N-(5-methyl-1,3,4-thiadiazol-2-yl)thiophene-2-carboxamide dihydrochloride]","Platelets, Mean",[1]; 1 mg/kg,1399 10^3 cells
same,"Red blood cells, Mean",[1]; 1 mg/kg,899 10^4 cells
same,"White blood cells, Mean",[1]; 1 mg/kg,403 10 cells
same,"Platelets, Mean",[1]; 10 mg/kg,1445 10^3 cells
same,"Red blood cells, Mean",[1]; 10 mg/kg,926 10^4 cells
same,"White blood cells, Mean",[1]; 10 mg/kg,424 10 cells
same,"Platelets, Mean",[1]; 100 mg/kg,1411 10^3 cells
same,"Red blood cells, Mean",[1]; 100 mg/kg,903 10^4 cells
same,"White blood cells, Mean",[1]; 100 mg/kg,329 10 cells
same,concentration at 1 h,[2]; [3],170 ng/g
same,concentration at 1 h,[2]; [4],1330 ng/mL
"Cc1nnc(NC(=O)c2cc([C@@H]3C[C@H]3NC3CCC3)cs2)s1 [Example 84, 4-((1S,2R)-2-(cyclobutylamino)cyclopropyl)-N-(5-methyl-1,3,4-thiadiazol-2-yl)thiophene-2-carboxamide dihydrochloride]","Platelets, Mean","[1]; 1 mg/kg, dihydrochloride",1533 10^3 cells
same,"Red blood cells, Mean","[1]; 1 mg/kg, dihydrochloride",910 10^4 cells
same,"White blood cells, Mean","[1]; 1 mg/kg, dihydrochloride",370 10 cells
same,"Platelets, Mean","[1]; 10 mg/kg, dihydrochloride",1627 10^3 cells
same,"Red blood cells, Mean","[1]; 10 mg/kg, dihydrochloride",880 10^4 cells
same,"White blood cells, Mean","[1]; 10 mg/kg, dihydrochloride",339 10 cells
same,"Platelets, Mean","[1]; 100 mg/kg, dihydrochloride",1665 10^3 cells
same,"Red blood cells, Mean","[1]; 100 mg/kg, dihydrochloride",900 10^4 cells
same,"White blood cells, Mean","[1]; 100 mg/kg, dihydrochloride",313 10 cells
same,concentration at 1 h,[2]; [3],177 ng/g
same,Kp at 1 h,"[2]; male, ICR, mouse, hippocampus/plasma, po, 10 mg/kg, 1 h after administration, read-out: Ratio (hippocampus/plasma), Mean",0.339
same,concentration at 1 h,[2]; [4],523 ng/mL
"Cc1nnc(NC(=O)c2cc([C@@H]3C[C@H]3NCC3CCOCC3)c(C)s2)s1 [Example 97, 5-methyl-N-(5-methyl-1,3,4-thiadiazol-2-yl)-4-((1S,2R)-2-((tetrahydro-2H-pyran-4-ylmethyl)amino)cyclopropyl)thiophene-2-carboxamide hydrochloride]","Platelets, Mean",[1]; 1 mg/kg,1462 10^3 cells
same,"Red blood cells, Mean",[1]; 1 mg/kg,902 10^4 cells
same,"White blood cells, Mean",[1]; 1 mg/kg,377 10 cells
same,"Platelets, Mean",[1]; 10 mg/kg,1483 10^3 cells
same,"Red blood cells, Mean",[1]; 10 mg/kg,890 10^4 cells
same,"White blood cells, Mean",[1]; 10 mg/kg,366 10 cells
same,"Platelets, Mean",[1]; 100 mg/kg,1533 10^3 cells
same,"Red blood cells, Mean",[1]; 100 mg/kg,929 10^4 cells
same,"White blood cells, Mean",[1]; 100 mg/kg,332 10 cells
same,concentration at 1 h,[2]; [3],194 ng/g
same,concentration at 1 h,[2]; [4],978 ng/mL
"O=C(NC1CCOCC1)c1csc([C@@H]2C[C@H]2NCC2CC2)c1 [Example 71, 5-((1R,2R)-2-((cyclopropylmethyl)amino)cyclopropyl)-N-(tetrahydro-2H-pyran-4-yl)thiophene-3-carboxamide hydrochloride]","Platelets, Mean",[1]; 1 mg/kg,1178 10^3 cells
same,"Red blood cells, Mean",[1]; 1 mg/kg,873 10^4 cells
same,"White blood cells, Mean",[1]; 1 mg/kg,275 10 cells
same,"Platelets, Mean",[1]; 10 mg/kg,1197 10^3 cells
same,"Red blood cells, Mean",[1]; 10 mg/kg,817 10^4 cells
same,"White blood cells, Mean",[1]; 10 mg/kg,276 10 cells
same,"Platelets, Mean",[1]; 100 mg/kg,1322 10^3 cells
same,"Red blood cells, Mean",[1]; 100 mg/kg,853 10^4 cells
same,"White blood cells, Mean",[1]; 100 mg/kg,323 10 cells
same,concentration at 1 h,[2]; [3],82 ng/g
same,concentration at 1 h,[2]; [4],229 ng/mL
"Cc1sc(C(=O)Nc2cnn(C)c2)cc1[C@@H]1C[C@H]1NC1CCC1 [Example 123, 4-((1S,2R)-2-(cyclobutylamino)cyclopropyl)-5-methyl-N-(1-methyl-1H-pyrazol-4-yl)thiophene-2-carboxamide hydrochloride]","Platelets, Mean","[1]; 1 mg/kg, hydrochloride",1086 10^3 cells
same,"Red blood cells, Mean","[1]; 1 mg/kg, hydrochloride",846 10^4 cells
same,"White blood cells, Mean","[1]; 1 mg/kg, hydrochloride",390 10 cells
same,"Platelets, Mean","[1]; 10 mg/kg, hydrochloride",1234 10^3 cells
same,"Red blood cells, Mean","[1]; 10 mg/kg, hydrochloride",854 10^4 cells
same,"White blood cells, Mean","[1]; 10 mg/kg, hydrochloride",368 10 cells
same,"Platelets, Mean",[1]; 100 mg/kg,1333 10^3 cells
same,"Red blood cells, Mean",[1]; 100 mg/kg,866 10^4 cells
same,"White blood cells, Mean",[1]; 100 mg/kg,380 10 cells
same,concentration at 0.5 h,"[2]; male, ICR, mouse, hippocampus, po, 10 mg/kg, read-out: Concentration Hippocampus, Mean",369 ng/g
same,concentration at 0.5 h,"[2]; male, ICR, mouse, plasma, po, 10 mg/kg, read-out: Concentration Plasma, Mean",1110 ng/mL
